ChEMBL document CHEMBL5724806, “Unraveling interindividual differences and functional consequences of gut microbial metabolism of immunosuppressants” (2024)

Legend:
Type in all cases: ADME
[1] = The drug is tested on the gut metagenome community of A-04 with ENA study accession number: PRJEB31790 for biotransformation under anaerobic condition. The drug concentrations were measured over 7 timepoints collected between 0 and 12 hours of incubation by liquid-chromatography-coupled mass spectrometry (LC–MS); set-up: dose 5 uM, timepoint 0, 0.75, 1.5, 3, 6, 9, 12 hours; conditions: 5 µM
[2] = The drug is tested on Streptococcus sanguinis strain: DSM20567 for biotransformation under microaerobic condition. The drug concentrations were measured over 6 timepoints collected between 0 and 12 hours of incubation by liquid-chromatography-coupled mass spectrometry (LC–MS); set-up: dose 5 uM, timepoint 0, 1.5, 3, 6, 9, 12 hours; conditions: 5 µM
[3] = The drug is tested on the gut metagenome community of P-03 with ENA study accession number: PRJEB31790 for biotransformation under microaerobic condition. The drug concentrations were measured over 7 timepoints collected between 0 and 12 hours of incubation by liquid-chromatography-coupled mass spectrometry (LC–MS); set-up: dose 5 uM, timepoint 0, 0.75, 1.5, 3, 6, 9, 12 hours; conditions: 5 µM
[4] = The drug is tested on the gut metagenome community of A-02 with ENA study accession number: PRJEB31790 for biotransformation under microaerobic condition. The drug concentrations were measured over 7 timepoints collected between 0 and 12 hours of incubation by liquid-chromatography-coupled mass spectrometry (LC–MS); set-up: dose 5 uM, timepoint 0, 0.75, 1.5, 3, 6, 9, 12 hours; conditions: 5 µM
[5] = The drug is tested on Collinsella aerofaciens strain: DSM3979 for biotransformation under anaerobic condition. The drug concentrations were measured over 6 timepoints collected between 0 and 12 hours of incubation by liquid-chromatography-coupled mass spectrometry (LC–MS); set-up: dose 5 uM, timepoint 0, 1.5, 3, 6, 9, 12 hours; conditions: 5 µM
[6] = The drug is tested on Streptococcus anginosus strain: DSM20563 for biotransformation under anaerobic condition. The drug concentrations were measured over 6 timepoints collected between 0 and 12 hours of incubation by liquid-chromatography-coupled mass spectrometry (LC–MS); set-up: dose 5 uM, timepoint 0, 1.5, 3, 6, 9, 12 hours; conditions: 5 µM
[7] = The drug is tested on the gut metagenome community of A-08 with ENA study accession number: PRJEB31790 for biotransformation under anaerobic condition. The drug concentrations were measured over 7 timepoints collected between 0 and 12 hours of incubation by liquid-chromatography-coupled mass spectrometry (LC–MS); set-up: dose 5 uM, timepoint 0, 0.75, 1.5, 3, 6, 9, 12 hours; conditions: 5 µM
[8] = The drug is tested on the gut metagenome community of A-05 with ENA study accession number: PRJEB31790 for biotransformation under microaerobic condition. The drug concentrations were measured over 7 timepoints collected between 0 and 12 hours of incubation by liquid-chromatography-coupled mass spectrometry (LC–MS); set-up: dose 5 uM, timepoint 0, 0.75, 1.5, 3, 6, 9, 12 hours; conditions: 5 µM
[9] = The drug is tested on the gut metagenome community of A-07 with ENA study accession number: PRJEB31790 for biotransformation under microaerobic condition. The drug concentrations were measured over 7 timepoints collected between 0 and 12 hours of incubation by liquid-chromatography-coupled mass spectrometry (LC–MS); set-up: dose 5 uM, timepoint 0, 0.75, 1.5, 3, 6, 9, 12 hours; conditions: 5 µM
[10] = The drug is tested on the gut metagenome community of P-01 with ENA study accession number: PRJEB31790 for biotransformation under microaerobic condition. The drug concentrations were measured over 7 timepoints collected between 0 and 12 hours of incubation by liquid-chromatography-coupled mass spectrometry (LC–MS); set-up: dose 5 uM, timepoint 0, 0.75, 1.5, 3, 6, 9, 12 hours; conditions: 5 µM
[11] = The drug is tested on Actinomyces graevenitzii strain: DSM15540 for biotransformation under microaerobic condition. The drug concentrations were measured over 6 timepoints collected between 0 and 12 hours of incubation by liquid-chromatography-coupled mass spectrometry (LC–MS); set-up: dose 5 uM, timepoint 0, 1.5, 3, 6, 9, 12 hours; conditions: 5 µM
[12] = The drug is tested on Alloscardovia omnicolens strain: DSM21503 for biotransformation under microaerobic condition. The drug concentrations were measured over 6 timepoints collected between 0 and 12 hours of incubation by liquid-chromatography-coupled mass spectrometry (LC–MS); set-up: dose 5 uM, timepoint 0, 1.5, 3, 6, 9, 12 hours; conditions: 5 µM
[13] = The drug is tested on Lactobacillus reuteri strain: DSM20016 for biotransformation under anaerobic condition. The drug concentrations were measured over 6 timepoints collected between 0 and 12 hours of incubation by liquid-chromatography-coupled mass spectrometry (LC–MS); set-up: dose 5 uM, timepoint 0, 1.5, 3, 6, 9, 12 hours; conditions: limosilactobacillus reuteri, 5 µM
[14] = The drug is tested on the gut metagenome community of A-01 with ENA study accession number: PRJEB31790 for biotransformation under anaerobic condition. The drug concentrations were measured over 7 timepoints collected between 0 and 12 hours of incubation by liquid-chromatography-coupled mass spectrometry (LC–MS); set-up: dose 5 uM, timepoint 0, 0.75, 1.5, 3, 6, 9, 12 hours; conditions: 5 µM
[15] = The drug is tested on Lactobacillus paracasei strain: ATCC27092 for biotransformation under microaerobic condition. The drug concentrations were measured over 6 timepoints collected between 0 and 12 hours of incubation by liquid-chromatography-coupled mass spectrometry (LC–MS); set-up: dose 5 uM, timepoint 0, 1.5, 3, 6, 9, 12 hours; conditions: lacticaseibacillus paracasei, 5 µM
[16] = The drug is tested on Bacteroides vulgatus strain: DSM1447 for biotransformation under anaerobic condition. The drug concentrations were measured over 6 timepoints collected between 0 and 12 hours of incubation by liquid-chromatography-coupled mass spectrometry (LC–MS); set-up: dose 5 uM, timepoint 0, 1.5, 3, 6, 9, 12 hours; conditions: phocaeicola vulgatus, 5 µM
[17] = The drug is tested on the gut metagenome community of T-04 with ENA study accession number: PRJEB31790 for biotransformation under anaerobic condition. The drug concentrations were measured over 7 timepoints collected between 0 and 12 hours of incubation by liquid-chromatography-coupled mass spectrometry (LC–MS); set-up: dose 5 uM, timepoint 0, 0.75, 1.5, 3, 6, 9, 12 hours; conditions: 5 µM
[18] = The drug is tested on Gemella morbillorum strain: DSM20572 for biotransformation under microaerobic condition. The drug concentrations were measured over 6 timepoints collected between 0 and 12 hours of incubation by liquid-chromatography-coupled mass spectrometry (LC–MS); set-up: dose 5 uM, timepoint 0, 1.5, 3, 6, 9, 12 hours; conditions: 5 µM
[19] = The drug is tested on Enterococcus faecalis strain: ATCC29212 for biotransformation under microaerobic condition. The drug concentrations were measured over 6 timepoints collected between 0 and 12 hours of incubation by liquid-chromatography-coupled mass spectrometry (LC–MS); set-up: dose 5 uM, timepoint 0, 1.5, 3, 6, 9, 12 hours; conditions: 5 µM
[20] = The drug is tested on Bifidobacterium adolescentis strain: DSM20083 for biotransformation under anaerobic condition. The drug concentrations were measured over 6 timepoints collected between 0 and 12 hours of incubation by liquid-chromatography-coupled mass spectrometry (LC–MS); set-up: dose 5 uM, timepoint 0, 1.5, 3, 6, 9, 12 hours; conditions: 5 µM
[21] = The drug is tested on the gut metagenome community of A-08 with ENA study accession number: PRJEB31790 for biotransformation under microaerobic condition. The drug concentrations were measured over 7 timepoints collected between 0 and 12 hours of incubation by liquid-chromatography-coupled mass spectrometry (LC–MS); set-up: dose 5 uM, timepoint 0, 0.75, 1.5, 3, 6, 9, 12 hours; conditions: 5 µM
[22] = The drug is tested on Actinomyces naeslundi strain: DSM43013 for biotransformation under anaerobic condition. The drug concentrations were measured over 6 timepoints collected between 0 and 12 hours of incubation by liquid-chromatography-coupled mass spectrometry (LC–MS); set-up: dose 5 uM, timepoint 0, 1.5, 3, 6, 9, 12 hours; conditions: actinomyces naeslundii, 5 µM
[23] = The drug is tested on the gut metagenome community of A-07 with ENA study accession number: PRJEB31790 for biotransformation under anaerobic condition. The drug concentrations were measured over 7 timepoints collected between 0 and 12 hours of incubation by liquid-chromatography-coupled mass spectrometry (LC–MS); set-up: dose 5 uM, timepoint 0, 0.75, 1.5, 3, 6, 9, 12 hours; conditions: 5 µM
[24] = The drug is tested on Eubacterium rectale strain: DSM17629 for biotransformation under anaerobic condition. The drug concentrations were measured over 6 timepoints collected between 0 and 12 hours of incubation by liquid-chromatography-coupled mass spectrometry (LC–MS); set-up: dose 5 uM, timepoint 0, 1.5, 3, 6, 9, 12 hours; conditions: agathobacter rectalis, 5 µM
[25] = The drug is tested on the gut metagenome community of T-05 with ENA study accession number: PRJEB31790 for biotransformation under anaerobic condition. The drug concentrations were measured over 7 timepoints collected between 0 and 12 hours of incubation by liquid-chromatography-coupled mass spectrometry (LC–MS); set-up: dose 5 uM, timepoint 0, 0.75, 1.5, 3, 6, 9, 12 hours; conditions: 5 µM

C=CC[C@@H]1/C=C(\C)C[C@H](C)C[C@H](OC)[C@H]2O[C@@](O)(C(=O)C(=O)N3CCCC[C@H]3C(=O)O[C@H](/C(C)=C/[C@@H]3CC[C@@H](O)[C@H](OC)C3)[C@H](C)[C@@H](O)CC1=O)[C@H](C)C[C@@H]2OC.O [TACROLIMUS]
Bacterial Biotransformation [1]: Compound metabolized
Bacterial Biotransformation [2]: Compound NOT metabolized
Bacterial Biotransformation [3]: Compound NOT metabolized
Bacterial Biotransformation [4]: Compound metabolized
Bacterial Biotransformation [5]: Compound metabolized
Bacterial Biotransformation [6]: Compound NOT metabolized
Bacterial Biotransformation [7]: Compound metabolized
Bacterial Biotransformation [8]: Compound metabolized
Bacterial Biotransformation [9]: Compound metabolized
Bacterial Biotransformation [10]: Compound NOT metabolized
Bacterial Biotransformation [11]: Compound NOT metabolized
Bacterial Biotransformation [12]: Compound NOT metabolized
Bacterial Biotransformation [13]: Compound NOT metabolized
Bacterial Biotransformation [14]: Compound NOT metabolized
Bacterial Biotransformation [15]: Compound NOT metabolized
Bacterial Biotransformation [16]: Compound NOT metabolized
Bacterial Biotransformation [17]: Compound NOT metabolized
Bacterial Biotransformation [18]: Compound NOT metabolized
Bacterial Biotransformation [19]: Compound NOT metabolized
Bacterial Biotransformation [20]: Compound NOT metabolized
Bacterial Biotransformation [21]: Compound metabolized
Bacterial Biotransformation [22]: Compound NOT metabolized
Bacterial Biotransformation [23]: Compound metabolized
Bacterial Biotransformation [24]: Compound NOT metabolized
Bacterial Biotransformation [25]: Compound NOT metabolized
